Source: patent US9096608B2, “Pharmaceutically active pyrazolo-triazine derivatives” (LEAD DISCOVERY CENTER GMBH, priority 2012, dated 2015)

Key:
Format in all cases: biochemical
[1] = target: T1, CDK2/CycA (Homo sapiens, UniProt P24941); assay: CDK2 Enzymatic Activity Assay (Lance Kinase Activity Assay, FRET); conditions: Table 5B; symbols per IC50 ranges of b615
T1 construct: purchased Proqinase
Procedure, shortened: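 Compounds serially diluted 1:3 over 8 steps, run with CDK2/CycA, ULight-MBP substrate and ATP in HEPES pH 7.5 buffer for 1 h at room temperature. LANCE TR-FRET detection with Eu-anti-phospho-MBP after EDTA stop; IC50 from sigmoidal dose-response curves.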

[2] = target: T2, CDK7/CycH/Mat1 (Homo sapiens, UniProt P50613); assay: CDK7 Enzymatic Activity Assay (Lance Kinase Activity Assay, FRET); conditions: Table 5A; 25 μM ATP final; read-out: CDK7: IC50 [mM] for CDK7 inhibition (the above defined ranges apply)
T2 construct: purchased Carna
Procedure, shortened: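 TR-FRET (LANCE) kinase assay with ULight-MBP peptide substrate and Eu-labelled anti-phospho antibody; compounds in 8-point 1:3 series in HEPES 50 mM pH 7.5, MgCl2 10 mM, EGTA 1 mM, DTT 2 mM, 0.01% Tween-20.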

[3] = target: T3, CDK9/Cyclin T1 (Homo sapiens, UniProt P50750); assay: CDK9 Enzymatic Activity Assay (Lance Kinase Activity Assay, FRET); conditions: Table 5B; symbols per IC50 ranges of b615
T3 construct: purchased Invitrogen
Procedure, shortened: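 TR-FRET detection of ULight-MBP substrate phosphorylation by CDK9/cyclin T1 using a Eu-anti-phospho-MBP antibody, in 50 mM HEPES pH 7.5, 10 mM MgCl2, 1 mM EGTA, 2 mM DTT, 0.01% Tween-20. Kinase reaction 1 h at room temperature, then EDTA detection buffer for 1 h before reading.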

T3 sequence (P50750 whole entry): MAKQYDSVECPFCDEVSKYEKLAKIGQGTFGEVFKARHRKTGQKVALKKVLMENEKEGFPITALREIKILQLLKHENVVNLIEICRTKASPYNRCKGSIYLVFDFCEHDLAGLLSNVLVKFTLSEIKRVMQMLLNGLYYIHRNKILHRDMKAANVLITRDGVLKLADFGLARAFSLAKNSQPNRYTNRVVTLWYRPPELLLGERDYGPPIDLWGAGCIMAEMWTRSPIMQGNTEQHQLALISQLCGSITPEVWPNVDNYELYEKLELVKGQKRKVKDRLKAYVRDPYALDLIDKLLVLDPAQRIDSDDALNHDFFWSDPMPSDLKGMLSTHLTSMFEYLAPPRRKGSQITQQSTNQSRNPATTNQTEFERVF
T3 sequence (O60563 whole entry partner): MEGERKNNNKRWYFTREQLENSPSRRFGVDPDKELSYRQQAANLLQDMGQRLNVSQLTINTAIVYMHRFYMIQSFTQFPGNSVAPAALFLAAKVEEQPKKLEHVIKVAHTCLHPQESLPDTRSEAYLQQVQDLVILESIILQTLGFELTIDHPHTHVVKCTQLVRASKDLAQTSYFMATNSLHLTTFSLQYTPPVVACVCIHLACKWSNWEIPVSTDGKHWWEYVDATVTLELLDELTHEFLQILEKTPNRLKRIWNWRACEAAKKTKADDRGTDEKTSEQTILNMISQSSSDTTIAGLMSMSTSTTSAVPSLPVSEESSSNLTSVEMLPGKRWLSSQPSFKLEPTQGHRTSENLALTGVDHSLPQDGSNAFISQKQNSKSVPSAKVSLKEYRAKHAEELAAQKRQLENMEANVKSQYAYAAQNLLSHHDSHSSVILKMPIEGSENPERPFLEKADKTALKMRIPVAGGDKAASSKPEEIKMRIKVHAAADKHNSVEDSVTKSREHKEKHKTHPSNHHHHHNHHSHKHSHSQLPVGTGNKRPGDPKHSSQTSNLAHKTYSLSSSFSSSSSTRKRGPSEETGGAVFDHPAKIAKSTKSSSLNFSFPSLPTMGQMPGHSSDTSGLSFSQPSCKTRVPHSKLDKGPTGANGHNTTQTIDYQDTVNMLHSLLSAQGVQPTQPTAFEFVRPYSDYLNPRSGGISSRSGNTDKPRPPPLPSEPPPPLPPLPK
T2 sequence (P50613 whole entry): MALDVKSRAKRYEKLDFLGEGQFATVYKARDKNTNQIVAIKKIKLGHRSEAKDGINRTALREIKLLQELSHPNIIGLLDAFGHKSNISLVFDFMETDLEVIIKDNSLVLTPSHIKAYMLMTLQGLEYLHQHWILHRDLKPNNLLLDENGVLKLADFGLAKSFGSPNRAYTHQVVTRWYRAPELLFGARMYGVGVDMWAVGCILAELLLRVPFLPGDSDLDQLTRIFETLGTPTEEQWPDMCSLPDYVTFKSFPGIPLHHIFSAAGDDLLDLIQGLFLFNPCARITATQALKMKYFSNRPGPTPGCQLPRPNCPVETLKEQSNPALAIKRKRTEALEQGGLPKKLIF
T2 sequence (P51946 whole entry partner): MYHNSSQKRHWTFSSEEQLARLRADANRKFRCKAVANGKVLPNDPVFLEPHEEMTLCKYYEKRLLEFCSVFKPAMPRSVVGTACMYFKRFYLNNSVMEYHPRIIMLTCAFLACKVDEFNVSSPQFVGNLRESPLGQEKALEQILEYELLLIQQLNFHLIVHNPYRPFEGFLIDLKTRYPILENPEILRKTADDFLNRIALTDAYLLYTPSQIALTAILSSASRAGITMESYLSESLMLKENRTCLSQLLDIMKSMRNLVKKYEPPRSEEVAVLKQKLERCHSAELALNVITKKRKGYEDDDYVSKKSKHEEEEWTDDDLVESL
T2 sequence (P51948 whole entry partner): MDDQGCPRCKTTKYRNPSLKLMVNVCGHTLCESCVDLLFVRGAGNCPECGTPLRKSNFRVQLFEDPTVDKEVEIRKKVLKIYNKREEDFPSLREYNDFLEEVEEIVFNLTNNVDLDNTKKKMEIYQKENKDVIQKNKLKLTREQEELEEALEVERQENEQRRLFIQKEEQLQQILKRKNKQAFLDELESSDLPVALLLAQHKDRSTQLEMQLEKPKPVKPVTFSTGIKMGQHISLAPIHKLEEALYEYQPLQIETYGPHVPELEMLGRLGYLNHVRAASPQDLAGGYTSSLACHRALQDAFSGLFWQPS

With COc1cccc([C@H](C)Nc2nc(N3CC4(CCNC4)C3)nc3c(C(C)C)cnn23)c1 [(VIII-ae), (S)-8-isopropyl-N-(1-(3-methoxyphenyl)ethyl)-2-(2,6-diazaspiro[3.4]octan-2-yl)pyrazolo[1,5-a][1,3,5]triazin-4-amine] the “CDK2 IC50 range class” value [1] was “+++ (IC50>2500 nM)”, the IC50 [2] was < 10 nM and the “CDK9: Selectivity of CDK7 inhibition over CDK9 inhibition [fold]” value [3] was “+++ (IC50>2500 nM)”.

With COc1cccc([C@H](C)Nc2nc(N3CCC4(CCNC4)C3)nc3c(C(C)C)cnn23)c1 (stereo partly drawn) [(VIII-af), 8-isopropyl-N-((S)-1-(3-methoxyphenyl)ethyl)-2-(2,7-diazaspiro[4.4]nonan-2-yl)pyrazolo[1,5-a][1,3,5]triazin-4-amine] the “CDK2 IC50 range class” value [1] was “+++ (IC50>2500 nM)”, the IC50 [2] was 10 to 30 nM and the “CDK9: Selectivity of CDK7 inhibition over CDK9 inhibition [fold]” value [3] was “+++ (IC50>2500 nM)”.

For COc1cccc([C@H](C)Nc2nc(N3CCC34CCCNC4)nc3c(C(C)C)cnn23)c1 (stereo partly drawn) [(VIII-ag), 8-isopropyl-N-((S)-1-(3-methoxyphenyl)ethyl)-2-(1,6-diazaspiro[3.5]nonan-1-yl)pyrazolo[1,5-a][1,3,5]triazin-4-amine], the “CDK2 IC50 range class” value [1] was “+++ (IC50>2500 nM)”, the IC50 [2] was 10 to 30 nM and the “CDK9: Selectivity of CDK7 inhibition over CDK9 inhibition [fold]” value [3] was “+++ (IC50>2500 nM)”.

With COc1cccc([C@H](C)Nc2nc(N3CCCC4(CCCCN4)C3)nc3c(C(C)C)cnn23)c1 (stereo partly drawn) [(VIII-ah), 8-isopropyl-N-((S)-1-(3-methoxyphenyl)ethyl)-2-(1,8-diazaspiro[5.5]undecan-8-yl)pyrazolo[1,5-a][1,3,5]triazin-4-amine] the “CDK2 IC50 range class” value [1] was “+++ (IC50>2500 nM)”, the IC50 [2] was < 10 nM and the “CDK9: Selectivity of CDK7 inhibition over CDK9 inhibition [fold]” value [3] was “+++ (IC50>2500 nM)”.

In the case of COc1cccc([C@H](C)Nc2nc(N3CCC4(CCCN4)CC3)nc3c(C(C)C)cnn23)c1 [(VIII-ai), (S)-8-isopropyl-N-(1-(3-methoxyphenyl)ethyl)-2-(1,8-diazaspiro[4.5]decan-8-yl)pyrazolo[1,5-a][1,3,5]triazin-4-amine], the “CDK2 IC50 range class” value [1] is reported as “+++ (IC50>2500 nM)”, the IC50 [2] is reported as < 10 nM and the “CDK9: Selectivity of CDK7 inhibition over CDK9 inhibition [fold]” value [3] is reported as “+++ (IC50>2500 nM)”.

In the case of COc1cccc([C@H](C)Nc2nc(N3CCC4(CCN4)CC3)nc3c(C(C)C)cnn23)c1 [(VIII-aj), (S)-8-isopropyl-N-(1-(3-methoxyphenyl)ethyl)-2-(1,7-diazaspiro[3.5]nonan-7-yl)pyrazolo[1,5-a][1,3,5]triazin-4-amine], the “CDK2 IC50 range class” value [1] is reported as “+++ (IC50>2500 nM)”, the IC50 [2] is reported as < 10 nM and the “CDK9: Selectivity of CDK7 inhibition over CDK9 inhibition [fold]” value [3] is reported as “+++ (IC50>2500 nM)”.

With COc1cccc([C@H](C)Nc2nc(N3CCCC34CCNCC4)nc3c(C(C)C)cnn23)c1 [(VIII-ak), (S)-8-isopropyl-N-(1-(3-methoxyphenyl)ethyl)-2-(1,8-diazaspiro[4.5]decan-1-yl)pyrazolo[1,5-a][1,3,5]triazin-4-amine] the “CDK2 IC50 range class” value [1] was “+++ (IC50>2500 nM)”, the IC50 [2] was 10 to 30 nM and the “CDK9: Selectivity of CDK7 inhibition over CDK9 inhibition [fold]” value [3] was “+++ (IC50>2500 nM)”.

In the case of COc1cccc([C@H](C)Nc2nc(N3CCC34CCNCC4)nc3c(C(C)C)cnn23)c1 [(VIII-al), (S)-8-isopropyl-N-(1-(3-methoxyphenyl)ethyl)-2-(1,7-diazaspiro[3.5]nonan-1-yl)pyrazolo[1,5-a][1,3,5]triazin-4-amine], the “CDK2 IC50 range class” value [1] is reported as “+++ (IC50>2500 nM)”, the IC50 [2] is reported as < 10 nM and the “CDK9: Selectivity of CDK7 inhibition over CDK9 inhibition [fold]” value [3] is reported as “+++ (IC50>2500 nM)”.

For COc1cccc([C@H](C)Nc2nc(N[C@@H]3CCCNC3)nc3c(C(C)C)cnn23)c1 [(VIII-h), 8-isopropyl-N4-((S)-1-(3-methoxyphenyl)ethyl)-N2-((R)-piperidin-3-yl)pyrazolo[1,5-a][1,3,5]triazine-2,4-diamine], the “CDK2 IC50 range class” value [1] was “+++ (IC50>2500 nM)”, the IC50 [2] was 10 to 30 nM and the “CDK9: Selectivity of CDK7 inhibition over CDK9 inhibition [fold]” value [3] was “+++ (IC50>2500 nM)”.
